# Experiments:
# TNF-α production = assay: Measurement of inhibiting activity of TNF-α production in LPS-stimulated THP-1 cells, ELISA (Reference Example F 3); assay type: cell-based; settings: Homo sapiens, LPS 5 μg/mL, 4 hours, ELISA (R&D System)
# Protocol: Measurement of Inhibiting Activity of TNF-α Production
# After THP-1 cells which had been cultured in PRMI 1640 medium (manufactured by Life Technologies, Inc.) containing 1% non-activated bovine fetal serum (manufactured by Life Technologies, Inc., U.S.A.) and 10 mM HEPES (pH 7.5) seeded on a 96 well plate to 1×10^5 cells/well, 1 μL test compound dissolved in DMSO was added to there. After incubation at 37° C. for 1 hour in a CO2 incubator, LPS (Wako Pure Chemicals) was added to the final concentration 5 μg/mL. After cultured at 37° C. for 4 hours in a CO2 incubator, the supernatant was obtained by centrifugation. The concentration of TNF-α in the supernatant was measured with ELISA (R&D System, Quantikine Kit). The concentration (IC50 value) necessary for inhibiting TNF-α production by 50% was calculated by PRIMS 2.01 (Graphpad Software).
# human p38 MAP kinase [1] = biological target: T1, human p38 MAP kinase (Homo sapiens, UniProt Q16539); assay: Measurement of the p38 MAP kinase inhibitory activity, 32P uptake into Myelin Basic Protein (Reference Example F 2); assay type: biochemical; settings: active form p38 MAP kinase, 30° C. 60 minutes, read-out: IC50 (p38 MAP kinase inhibitory activity, uptake of 32P into acid insoluble fraction)
# T1 construct: made in house; host or cells: Sf-21 insect cells, baculovirus (BAC-HP38 co-infected with BAC-caMKK3)
# T1 sequence (Q16539 whole entry): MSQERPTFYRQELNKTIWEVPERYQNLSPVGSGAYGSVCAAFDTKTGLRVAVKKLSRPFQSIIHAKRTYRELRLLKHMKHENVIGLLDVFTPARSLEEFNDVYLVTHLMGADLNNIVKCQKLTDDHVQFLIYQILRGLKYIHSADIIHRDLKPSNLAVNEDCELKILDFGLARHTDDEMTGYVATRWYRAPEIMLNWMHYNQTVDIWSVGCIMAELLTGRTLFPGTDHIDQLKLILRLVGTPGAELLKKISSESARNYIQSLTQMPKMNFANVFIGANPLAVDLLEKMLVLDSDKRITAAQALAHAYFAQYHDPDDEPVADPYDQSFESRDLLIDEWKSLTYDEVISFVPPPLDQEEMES
# Protocol: The genetic manipulations described below were according to the methods described in the book (Maniatis et al., Molecular Cloning, Cold Spring Harbor Laboratory, 1989) or a method described in the protocol attached to the reagent.
# (§1) (1) Cloning of Human p38 MAP Kinase Gene and Preparation of Recombinant Baculovirus
# Cloning of human p38 MAP kinase gene was performed by a PCR method using a primer set P38 U: 5′-[…]-3′ [SEQ ID NO:9] and PAG-L: 5′-[…]-3′ [SEQ ID NO:10] made by reference to the base sequence of p38 MAP kinase gene reported by Han et al. (Science 265 (5173), 808 811 (1994)) and employing kidney cDNA (Toyobo, QUICK-Clone cDNA) as a template.
# A PCR reaction was performed by a Hot Start method using AmpliWax PCR Gem 100 (Takara Shuzo). As the lower mixed solution, 2 μL 10×LA PCR Buffer, 3 μL 2.5 mM dNTP solution, each 2.5 μL of 12.5 μM primer solution, and 10 μL sterile distilled water were mixed. As the upper mixed solution, 1 μL human cardiac cDNA (1 ng/mL) as a template, 3 μL 10×LA PCR Buffer, 1 μL 2.5 mM dNTP solution, 0.5 μL TaKaRa LA Taq DNA polymerase (Takara Shuzo), and 24.5 μL sterile distilled water were mixed. One AmpliWax PCR Gem 100 (Takara Shuzo) was added to the prepared lower mixed solution to treat at 70° C. for 5 minutes and for 5 minutes in an ice and, thereafter, the upper mixed solution was added to prepare a reaction solution for PCR. A tube containing the reaction solution was set at a thermal cycler (Perkin Elmer), which was treated at 95° C. for 2 minutes. Further, after repeating 35 times a cycle of 15 seconds at 95° C. and 2 minutes at 68° C., treatment was performed at 72° C. for 8 minutes. The resulting PCR product was subjected to agarose gel (1%) electrophoresis, 1.1 kb DNA fragment containing p38 MAP kinase gene was recovered from the gel and, thereafter, which was inserted into pT7Blue-T vector (Takara Shuzo) to make the plasmid pHP38.
# The 4.8 kb XhoI-KpnI fragment of the plasmid pFASTBAC1 (CIBCOBRL) and the 1.1 kb XhoI-Kpn fragment of the above plasmid pHP38 were ligated to make the plasmid pFBHP38.
# The plasmid pFBHP38 and BAC-TO-BAC Baculovirus Expression System (GIBCOBRL) were used to prepare the recombinant Baculovirus virusstock BAC-HP38.
# (§2) (2) Cloning of Human MKK3 Gene and Preparation of Recombinant Baculovirus
# Cloning of human MKK3 gene was performed by a PCR method using a primer set MKK-U: 5′-[…]-3′ [SEQ ID NO:11] and MKK-L: 5′-[…]-3′ [SEQ ID NO:12] made by reference to the base sequence of MKK3 gene reported by Derijard, B. et al., Science 267 (5198), 682 685 (1995) and using kidney cDNA (Toyobo, QUICK-Clone cDNA).
# A PCR reaction was performed by a Hot Start method using AmpliWax PCR Gem 100 (Takara Shuzo). As the lower mixed solution, 2 μL 10×LA PCR Buffer, 3 μL 2.5 mM dNTP solution, each 2.5 μL of 12.5 μM primer solution, and 10 μL sterile distilled water were mixed. As the upper mixed solution, 1 μL human kidney cDNA (1 ng/mL), 3 μL 10×LA PCR Buffer, 1 μL 2.5 mM dNTP solution, 0.5 μL TaKaRa LA taq DNA polymerase (Takara Shuzo) and 24.5 μL sterile distilled water were mixed. One AmpliWax PCR Gem 100 (Takara Shuzo) was added to the prepared lower mixed solution to treat at 70° C. for 5 minutes and for 5 minutes in ice and, thereafter, the upper mixed solution was added to prepare a reaction solution for PCR. A tube containing the reaction solution was set at a thermal cycler (Perkin Elmer), which was treated at 95° C. for 2 minutes. Further, after repeating 35 times a cycle of 15 seconds at 95° C. and 2 minutes at 68° C., treatment was performed at 72° C. for 8 minutes. The resulting PCR product was subjected to agarose gel (1%) electrophoresis, 1.0 kb DNA fragment containing MKK3 gene was recovered from the gel and, thereafter, which was inserted into pT7Blue-T vector (Takara Shuzo) to make the plasmid pHMKK3. […]
# [2] = tested on: TNF-α production in THP-1 cells; assay: Measurement of inhibitory activity of TNF-α production (LPS-stimulated THP-1 cells, ELISA), Reference Example K 2; assay type: cell-based; settings: Homo sapiens, Reference Example H compounds, LPS 5 μg/mL, 4 hours, read-out: IC50 (inhibition of TNF-α production)
# Protocol: THP-1 cells cultured in a PRMI 1640 medium (Life Technologies, Inc., USA) containing 1% inactivated fetal bovine serum (Life Technologies, Inc.) and 10 mM HEPES (pH 7.5) were inoculated on a 96 well plate to give 1×10^5 cells/well, then, 1 μL of a sample compound dissolved in DMSO was added. After incubation for 1 hour at 37° C. in a CO2 incubator, LPS (Wako Pure Chemical Industries Ltd.) was added to give a final concentration of 5 μg/mL. After incubation for 4 hours at 37° C. in a CO2 incubator, the supernatant was obtained by centrifugal separation. The TNF-α concentration in the supernatant was measured by ELISA (R&D Systems, Quantikine Kit). The concentration (IC50 value) of a sample compound necessary for inhibiting 50% of TNF-α production was calculated by PRISM 2.01 (GraphPad Software).
# human p38 MAP kinase [3] = biological target: T1, human p38 MAP kinase; assay: Inhibition of active type p38 MAP kinase (32P incorporation into Myelin Basic Protein), Reference Example K 1; assay type: biochemical; settings: Reference Example H compounds, 30° C., 60 minutes
# Protocol: Genetic manipulation methods described below are based on methods described in Maniatis et al., Molecular Cloning, ColdSpring Harbor Laboratory, 1989, and the appended reagent protocol.
# as §1
# Cloning of human p38 MAP kinase gene was conducted by a PCR method using primer set p38 U: 5′-[…] C-3′ [SEQ ID No. 1] and PAG-L: 5′-[…]-3′ [SEQ ID No. 2] synthesized referring to the nucleotide sequence of p38 MAP kinase gene of Han et al., Science 265 (5173), 808 811 (1994), utilizing kidney cDNA (QUICK-Clone cDNA, manufactured by Toyobo Co., Ltd.) as a template.
# A PCR reaction was performed according to Hot Start method using AmpliWax PCR Gem 100 (Takara Shuzo Co., Ltd.). For preparing lower layer mixed liquid, 2 μL of 10×LA PCR Buffer, 3 μL of 2.5 mM dNTP solution, each 2.5 μL of 12.5 μM primer solution, and 10 μL of sterile distilled water were mixed. For preparing upper layer mixed liquid, 1 μL of human heart cDNA (1 ng/mL) as a template, 3 μL of 10×LA PCR Buffer, 1 μL of 2.5 mM dNTP solution, 0.5 μL of TaKaRa LA Taq DNA polymerase (Takara Shuzo Co., Ltd.) and 24.5 μL of sterile distilled water were mixed. To the prepared lower mixed liquid was added one AmpliWax PCR Gem 100 (Takara Shuzo Co., Ltd.), treated for 5 minutes at 70° C. and 5 minutes in ice, then, the upper mixed liquid was added, to prepare a reaction solution for PCR. A tube filled with the reaction solution was set on Thermal Cycler (Perkin Elmer), then, treated for 2 minutes at 95° C. Further, a cycle including 15 seconds at 95° C. and 2 minutes at 68° C. was repeated 35 times, then, treated for 8 minutes at 72° C. The resulted PCR product was subjected to agarose gel (1%) electrophoresis, a 1.1 kb DNA fragment containing a p38 MAP kinase gene was recovered from the gel, then, pT7Blue-T vector (Takara Shuzo Co., Ltd.) was inserted to prepare a plasmid pHP38.
# 4.8 kb XhoI-KpnI fragment of plasmid pFASTBAC1 (CIBCOBRL) and 1.1 kb XhoI-Kpn fragment of the above-mentioned plasmid pHP38 were ligated to construct plasmid pFBHP38.
# Plasmid pFBHP38 and BAC-TO-BAC Baculovirus Expression System (GIBCOBRL) were used to prepare virus stock BAC-HP38 of recombinant baculovirus.
# as §2
# Cloning of human MKK3 gene was conducted by a PCR method using primer set MKK-U: 5′-[…] 3′ [SEQ ID No. 3] and MKK-L: 5′-[…]-3′ [SEQ ID No. 4] synthesized referring to the nucleotide sequence of MKK3 gene of Derijard, B. et al., Science 267 (5198), 682 685 (1995), utilizing kidney cDNA (QUICK-Clone cDNA, manufactured by Toyobo Co., Ltd.) as a template.
# A PCR reaction was performed according to Hot Start method using AmpliWax PCR Gem 100 (Takara Shuzo Co., Ltd.). […]
Structure (SMILES),IC50 (TNF-α production),IC50 (human p38 MAP kinase [1]),IC50 [2],IC50 (human p38 MAP kinase [3]),melting point
"COc1ccc(-c2nc(NC(=O)c3cccnc3)sc2-c2ccnc(NC(=O)c3cccnc3)c2)cc1 [D 3, N-[4-(4-methoxyphenyl)-5-[2-[(3-pyridylcarbonylamino)]-4-pyridyl]-1,3-thiazol-2-yl]nicotinamide]",26 nM,23 nM,–,–,–
Cc1cccc(-c2nc(N(C)C(=O)c3ccc(C)nc3)sc2-c2ccnc(NC3CCCC3)c2)c1 [46-4],–,–,82 nM,–,–
"Cc1cc(C)cc(-c2nc(N)sc2-c2ccnc(OCc3ccccc3)c2)c1 [D 1, [4-(3,5-dimethylphenyl)-5-(2-phenylmethyloxy-4-pyridyl)-1,3-thiazol-2-yl]amine]",–,430 nM,–,–,–
CCc1nc(-c2cccc(Cl)c2)c(-c2ccnc(NC3CCCCC3)c2)s1 [36-10],–,–,55 nM,1.1 nM,106 to 107 °C
CCC(=O)Nc1cc(-c2sc(-c3ccc(S(C)(=O)=O)cc3)nc2-c2cccc(Cl)c2)ccn1 [58-7],–,–,21 nM,8.4 nM,224 to 225 °C
"COc1ccc(-c2nc(NC(=O)c3ccccc3)sc2-c2ccnc(NC(=O)c3ccccc3)c2)cc1 [D 2, N-[4-[2-benzoylamino-4-(4-methoxyphenyl)-1,3-thiazol-5-yl]-2-pyridyl]benzamide]",–,63 nM,–,–,–

# Next, values leading:
IC50 (TNF-α production),IC50 (human p38 MAP kinase [1]),IC50 [2],IC50 (human p38 MAP kinase [3]),melting point,Structure (SMILES)
14 nM,20 nM,–,–,–,"COc1ccc(-c2nc(N)sc2-c2ccnc(NC(=O)c3ccccc3)c2)cc1 [D 4, N-[4-[2-amino-4-(4-methoxyphenyl)-1,3-thiazol-5-yl]-2-pyridyl]benzamide]"
–,–,120 nM,10 nM,149 to 150 °C,"CCc1nc(-c2cccc(Cl)c2)c(-c2ccnc(NC(C)=O)c2)s1 [H 30-2, N-[4-[4-(3-chlorophenyl)-2-ethyl-1,3-thiazol-5-yl]-2-pyridyl]acetamide]"
–,–,2 nM,9.9 nM,168 to 169 °C,"Cc1cccc(-c2nc(N)sc2-c2ccnc(NC3CCCCC3)c2)c1 [H 34-2, [5 (2 cyclohexylamino-4-pyridyl)-4 (3 methylphenyl)-1,3thiazol-2 yl]amine]"
–,29 nM,–,–,–,"Cc1cc(C)cc(-c2nc(N)sc2-c2ccnc(NC(=O)c3ccccc3)c2)c1 [D 5, N-[4-[2-amino-4-(3,5-dimethylphenyl)-1,3-thiazol-5-yl]-2-pyridyl]benzamide]"
